In ChEMBL document CHEMBL5465560, “Selectivity Literature for EUbOPEN Chemogenomic Library” (2024):
Values belong to the molecule of their own block, whether it stands above or below them.

Tests used:
[1] = target: T1, MAP kinase-activated protein kinase 5 (Homo sapiens) (UniProt Q8IW41); test: Selectivity interaction (KinomeScan (DiscoverX)) EUB0000607a MAPKAPK5; details: at 10 µM
T1 sequence (whole entry): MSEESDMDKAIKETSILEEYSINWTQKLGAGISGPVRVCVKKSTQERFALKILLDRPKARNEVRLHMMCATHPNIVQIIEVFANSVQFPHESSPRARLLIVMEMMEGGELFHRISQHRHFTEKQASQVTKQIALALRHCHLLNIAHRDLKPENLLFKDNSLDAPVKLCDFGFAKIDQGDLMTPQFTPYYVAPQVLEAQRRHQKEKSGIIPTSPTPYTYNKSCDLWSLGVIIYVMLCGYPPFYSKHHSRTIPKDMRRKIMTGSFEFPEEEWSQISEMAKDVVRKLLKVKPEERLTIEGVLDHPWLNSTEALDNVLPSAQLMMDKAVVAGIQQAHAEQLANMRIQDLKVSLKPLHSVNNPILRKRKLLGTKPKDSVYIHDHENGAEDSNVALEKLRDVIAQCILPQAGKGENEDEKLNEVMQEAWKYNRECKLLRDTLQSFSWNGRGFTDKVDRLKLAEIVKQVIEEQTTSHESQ

[2] = target: Interleukin-1 receptor-associated kinase 1 (Homo sapiens) (UniProt P51617); test: Selectivity interaction (KinomeScan (DiscoverX)) EUB0000595a IRAK1; details: at 10 µM
Interleukin-1 receptor-associated kinase 1 (Homo sapiens), sequence (P51617 whole entry, looked up): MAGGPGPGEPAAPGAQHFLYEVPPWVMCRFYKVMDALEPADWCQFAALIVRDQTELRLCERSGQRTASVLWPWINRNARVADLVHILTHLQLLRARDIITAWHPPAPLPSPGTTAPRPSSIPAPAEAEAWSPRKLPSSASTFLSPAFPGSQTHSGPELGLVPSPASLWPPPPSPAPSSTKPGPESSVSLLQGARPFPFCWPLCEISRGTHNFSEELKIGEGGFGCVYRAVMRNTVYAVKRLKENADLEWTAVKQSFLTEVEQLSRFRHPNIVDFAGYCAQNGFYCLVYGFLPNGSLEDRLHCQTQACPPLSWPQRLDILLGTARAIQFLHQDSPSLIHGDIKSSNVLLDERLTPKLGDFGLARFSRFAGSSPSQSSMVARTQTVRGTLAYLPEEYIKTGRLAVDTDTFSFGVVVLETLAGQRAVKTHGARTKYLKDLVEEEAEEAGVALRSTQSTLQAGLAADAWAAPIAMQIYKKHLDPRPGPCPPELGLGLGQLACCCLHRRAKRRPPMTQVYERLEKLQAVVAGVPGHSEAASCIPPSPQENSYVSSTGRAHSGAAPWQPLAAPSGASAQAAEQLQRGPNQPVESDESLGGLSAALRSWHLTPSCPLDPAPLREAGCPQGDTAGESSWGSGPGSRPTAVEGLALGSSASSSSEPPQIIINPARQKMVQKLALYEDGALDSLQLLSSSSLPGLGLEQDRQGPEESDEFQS

[3] = target: T2, Serine/threonine-protein kinase TAO1 (Homo sapiens) (UniProt Q7L7X3); test: Selectivity interaction (KinomeScan (DiscoverX)) EUB0000229b TAOK1; details: at 10 µM
T2 sequence (whole entry): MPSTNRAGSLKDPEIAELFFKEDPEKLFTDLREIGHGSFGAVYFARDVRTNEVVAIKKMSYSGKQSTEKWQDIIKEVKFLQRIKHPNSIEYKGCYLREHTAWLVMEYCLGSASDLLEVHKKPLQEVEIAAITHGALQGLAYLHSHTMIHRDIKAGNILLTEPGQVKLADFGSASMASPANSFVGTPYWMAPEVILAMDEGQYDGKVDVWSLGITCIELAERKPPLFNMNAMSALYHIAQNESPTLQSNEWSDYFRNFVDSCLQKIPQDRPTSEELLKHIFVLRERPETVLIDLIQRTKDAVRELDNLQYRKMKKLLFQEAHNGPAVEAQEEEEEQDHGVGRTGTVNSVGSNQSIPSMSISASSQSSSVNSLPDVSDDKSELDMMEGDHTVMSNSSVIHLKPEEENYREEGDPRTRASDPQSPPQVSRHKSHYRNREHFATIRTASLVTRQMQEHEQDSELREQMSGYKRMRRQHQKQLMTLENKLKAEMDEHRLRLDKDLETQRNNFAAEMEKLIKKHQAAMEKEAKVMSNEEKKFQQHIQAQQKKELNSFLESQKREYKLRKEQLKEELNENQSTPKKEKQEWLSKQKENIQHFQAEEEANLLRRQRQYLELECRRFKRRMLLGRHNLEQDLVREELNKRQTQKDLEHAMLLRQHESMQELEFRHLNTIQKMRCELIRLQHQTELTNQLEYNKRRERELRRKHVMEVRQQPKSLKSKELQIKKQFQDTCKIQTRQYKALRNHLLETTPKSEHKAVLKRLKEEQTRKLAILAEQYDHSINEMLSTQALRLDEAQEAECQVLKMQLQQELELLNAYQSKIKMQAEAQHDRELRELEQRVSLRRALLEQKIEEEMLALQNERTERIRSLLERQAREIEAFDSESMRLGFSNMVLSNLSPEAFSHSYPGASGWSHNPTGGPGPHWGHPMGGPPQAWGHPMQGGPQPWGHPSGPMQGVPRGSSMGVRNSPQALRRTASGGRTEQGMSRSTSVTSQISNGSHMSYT

[4] = target: T3, Tyrosine-protein kinase Mer (Homo sapiens) (UniProt Q12866); test: Selectivity interaction (KinomeScan (DiscoverX)) EUB0001049a MERTK; details: at 1 µM
T3 sequence (whole entry): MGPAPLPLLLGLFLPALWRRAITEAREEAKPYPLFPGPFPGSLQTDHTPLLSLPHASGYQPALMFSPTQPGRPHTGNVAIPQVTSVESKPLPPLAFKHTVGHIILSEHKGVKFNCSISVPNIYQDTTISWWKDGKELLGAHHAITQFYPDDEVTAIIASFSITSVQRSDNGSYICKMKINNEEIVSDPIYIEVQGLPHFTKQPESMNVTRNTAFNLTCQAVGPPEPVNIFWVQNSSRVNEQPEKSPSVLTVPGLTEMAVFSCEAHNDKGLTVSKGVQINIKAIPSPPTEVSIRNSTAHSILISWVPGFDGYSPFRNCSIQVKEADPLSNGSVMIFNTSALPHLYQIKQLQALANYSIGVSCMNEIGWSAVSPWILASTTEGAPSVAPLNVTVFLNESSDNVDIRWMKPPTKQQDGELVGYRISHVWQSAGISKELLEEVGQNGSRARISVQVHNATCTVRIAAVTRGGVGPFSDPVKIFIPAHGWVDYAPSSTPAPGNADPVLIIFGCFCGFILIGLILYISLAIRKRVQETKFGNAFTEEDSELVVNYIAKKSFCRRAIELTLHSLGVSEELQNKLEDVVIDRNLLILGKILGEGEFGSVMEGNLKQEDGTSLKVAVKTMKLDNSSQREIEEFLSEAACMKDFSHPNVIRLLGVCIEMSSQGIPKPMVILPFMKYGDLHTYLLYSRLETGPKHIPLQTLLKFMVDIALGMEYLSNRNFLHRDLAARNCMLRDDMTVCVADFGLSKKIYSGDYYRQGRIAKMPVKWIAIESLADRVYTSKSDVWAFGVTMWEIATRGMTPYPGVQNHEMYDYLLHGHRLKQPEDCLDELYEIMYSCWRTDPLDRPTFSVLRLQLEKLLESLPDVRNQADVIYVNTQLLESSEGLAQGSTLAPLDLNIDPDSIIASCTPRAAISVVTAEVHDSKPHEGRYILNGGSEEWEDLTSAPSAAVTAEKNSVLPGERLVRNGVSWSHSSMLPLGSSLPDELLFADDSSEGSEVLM

[5] = Selectivity interaction (Rat whole blood B cell activation assay) EUB0000877a PIK3CD; type: tissue-based

Structure (SMILES): CNC(=O)Nc1ccc(-c2nc(N3CC4CCC(C3)O4)c3cnn(C4CCC5(CC4)OCCO5)c3n2)cc1
- % of control [1]: 100%

Structure (SMILES): COCC(=O)NC/C=C/c1ccc2ncnc(Nc3ccc(Oc4ccc(C)nc4)c(C)c3)c2c1 [CP-724714]
- % of control [2]: 100%

Structure (SMILES): COc1cc(N(C)c2ccnc3ccc(C(F)(F)F)cc23)cc(OC)c1OC
- % binding [3]: 65%

Structure (SMILES): COc1cc(Nc2nc(C)cc(-c3cnn4nc(OC)ccc34)n2)cc(C(F)(F)F)c1
- % of control [4]: 98%

- IC50 [5]: 99 nM
Structure (SMILES): CCC(=O)N1CC[C@H](Nc2ncnc3c2CN(c2cnc(OC)c(C(F)(F)F)c2)CC3)C1 [LENIOLISIB]
